Laboratory results taken from patent US20240100058A1, “METHOD FOR SELECTING, ASSESSING, OR PRODUCING SODIUM LAURYL SULFATE AS RAW MATERIAL FOR PHARMACEUTICAL FORMULATION, OR FORMULATION OR THE LIKE CONTAINING SAME” (Chugai Seiyaku Kabushiki Kaisha, priority 2019, published 2024).

How the values were obtained:
Assay type in all cases: physicochemical
[1] = X-ray powder diffraction of sodium lauryl sulfate lots after storage under accelerated condition; details: for storage period in which XRPD peaks of sodium lauryl sulfate-dodecanol complex were observed: 70° C., relative humidity about 10% (saturated LiCl), open system, stored up to day 11; for storage period at which new XRPD peaks (2θ around 4.9° and 7.4°) were first detected: airtight system, up to 4 days
Protocol: Samples (appropriate amount) of different lots, Lot 1 (production date: 2015.12.22) and Lot 2 (production date: 2017.3.10)) of sodium lauryl sulfate, which were obtained from a single manufacturer and produced on different days, were placed in glass vials and stored in an airtight system under condition 1A (temperature 60° C.) and condition 1B (temperature 70° C.). Samples before storage, stored for 3 days and 4 day were subjected to X-ray powder diffraction (XRPD). Measurement was performed in the conditions shown below.
X-ray powder diffraction method: • Measuring device: X′Pert-Pro MPD (manufactured by PANalytical) • Anti-cathode: Cu • Tube voltage: 45 kV • Tube current: 40 mA • Step width: 0.02 • Scan axis: 20 • Sampling time per step: 43 seconds • Scan range: 3 to 40°
(§1) A sample of sodium lauryl sulfate (about 250 mg) was placed in a glass vial and stored in an open system at a temperature of 70° C. and a relative humidity of about 10% (a saturated aqueous solution of LiCl). Samples of before storage, stored for a single day, 2 days, 3 days, 4 days, 7 days and 11 days were subjected to X-ray powder diffraction performed in the conditions of Example 1.

[2] = Sulfate ion quantification by ion chromatography in sodium lauryl sulfate after accelerated storage; details: for sulfate ion concentration in sample solution: after 4-day storage at 70° C., relative humidity about 10%, about 5 mg sample in 50 mL water
Protocol: as §1
Sulfate ions generated by decomposition of sodium lauryl sulfate in the samples of Lot 1 and Lot 2 after 4-day storage were quantified by ion chromatography shown below.
Sodium lauryl sulfate (about 5 mg) was weighed and water was added up to 50 mL. The solution was irradiated with ultrasonic wave for 15 minutes and filtered by a membrane filter (DISMIC-25HP PTFE 0.45 μm HYDROPHILIC, manufactured by ADVANTEC). The filtrate was passed through a solid-phase extraction cartridge (Dionex OnGuard II RP, manufactured by ThermoFisher Scientific) washed and the eluate was used as a sample solution. Separately, solutions having a sulfate ion concentration of 1 mg/L, 2 mg/L, 3 mg/L, 4 mg/L and 5 mg/L were prepared by use of the sulfate ion standard solution (1 g/L, manufactured by Wako Pure Chemical Industries Ltd.) for ion chromatography and used as the standard solutions. […]
The concentration of sulfate ion in a sample solution was calculated based on the calibration curve prepared by using the standard solutions.
Sodium lauryl sulfate is usually stored at room temperature; however, there are possible cases, e.g., transportation, where it is stored at a higher temperature than room temperature. […] After storage, sulfate ions generated by decomposition of sodium lauryl sulfate in the sample were quantified by ion chromatography shown in Example 4.

[3] = X-ray powder diffraction of sodium lauryl sulfate lots after storage under accelerated condition; details: for storage period at which new XRPD peaks were first detected: open system, sulfate
[4] = condition 2A: 70° C., relative humidity about 79% (saturated NaCl)
[5] = condition 2B: 70° C., relative humidity about 10% (saturated LiCl), up to 6 days

| SMILES | storage period in which XRPD peaks of sodium lauryl sulfate-dodecanol complex were observed [1] | storage period at which new XRPD peaks (2θ around 4.9° and 7.4°) were first detected ([1]; condition 1A: 60° C.) | storage period at which new XRPD peaks (2θ around 4.9° and 7.4°) were first detected ([1]; condition 1B: 70° C.) | sulfate ion concentration in sample solution [2] | storage period at which new XRPD peaks were first detected [3, 4] | physical state of sample after storage ([3]; condition 2A: 70° C., relative humidity about 79%, 2-days and 3-days storage) | storage period at which new XRPD peaks were first detected [3, 5] | sulfate ion concentration detected by ion chromatography ([2]; prior storage under Conditions 1-17 of Table 1 (30-40° C. 45 days plus up to 48 hours at up to 60° C.), then 70° C., about 10% RH, 4 days) |
| --- | --- | --- | --- | --- | --- | --- | --- | --- |
| CCCCCCCCCCCCOS(=O)(=O)[O-].[Na+] [Lot 1, sodium lauryl sulfate] | ≥ 3 days | 4 days | 3 days | 24.1 mg/L | 1 days | changed to a liquid state | 3 days |  |
| CCCCCCCCCCCCOS(=O)(=O)[O-].[Na+] [Lot 2, sodium lauryl sulfate] | > 11 days | > 4 days | > 4 days | ≤ 1 mg/L | 3 days |  | > 6 days |  |
| CCCCCCCCCCCCOS(=O)(=O)[O-].[Na+] [Lot 5, sodium lauryl sulfate] |  |  |  |  |  |  |  | ≤ 1 mg/L |
